Results taken from patent US4959377A, “Phenoxypyridinamine compounds which are use as a dermatological composition” (Hoechst-Roussel Pharmaceuticals Inc., priority 1989, dated 1990).
Structures can show the parent of a compound that is named as a salt.

Columns and labels:
[1] = biological target: T1, porcine pancreatic PLA2 (Sus scrofa, UniProt P00592); test: In Vitro Phospholipase A2 Assay (PLA2); format: biochemical; details: 0.01 M test compound, 37° C., pH 8.0; read-out: PLA2 (difference vs. control)
T1 construct: from tissue; host or cells: porcine pancreas
T1 sequence (P00592 23-146): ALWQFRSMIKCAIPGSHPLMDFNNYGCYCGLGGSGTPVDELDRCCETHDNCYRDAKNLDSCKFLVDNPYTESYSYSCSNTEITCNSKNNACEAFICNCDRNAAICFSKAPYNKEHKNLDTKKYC
Method: In Vitro Phospholipase A2 Assay (PLA2)
The ability of a compound to modulate PLA2 activity (cleavage of ^14 C-dipalmitoyl phosphotidylcholine at the 2-position to ^14 C-palmitic acid) was quantitated in this assay. The reaction mixture contained Tris buffer (25 mM), pH 8.0, calcium chloride (2.0 mM), bovine serum albumin (0.5 mg), dipalmitoyl phosphotidylcholine (8×10^-5M), (^14 C-palmitoyl)dipalmitoyl phosphotidylcholine (6×10^3cpm), porcine pancreatic PLA2 (3.2 units) and the test compound. The reaction was run at 37° C. in a shaking incubator. The reaction was quenched and an internal standard was added in order to determine sample recovery. The samples were loaded onto C18 columns, eluted with ethanol, and the radioactivity was then measured. […] See Feyen, J. H. M., et al., Journal of Chromatography 259 (1983), pp. 338-340.

[2] = tested on: ear edema induced by topical application of TPA (phorbol 12-myristate acetate); test: TPA-Induced Ear Edema (TPAEE); format: in vivo, Female Swiss Webster mice; details: for TPAEE: 10 μg/ear topical, TPA 10 μg/ear, five hours
Method: TPA-Induced Ear Edema (TPAEE)
The purpose of this assay was to determine the ability of a topically-applied compound to prevent ear edema induced by topical application of TPA (phorbol 12-myristate acetate). Female Swiss Webster mice topically received TPA (10 μg/ear) on the right ear and vehicle on the left ear. The test compound (10 μg/ear) was applied to both ears. After five hours, the animals were sacrificed and an ear punch (4 mm) was taken from each ear. The difference in right and left ear punch weights for each animal was determined to assess activity. […] See Young, J. M. et al., J. Invest. Dermatol., 80 (1983), pp. 48-52.

[3] = tested on: mouse ear edema induced by topical application of arachidonic acid; test: Arachidonic Acid-Induced Ear Edema (AAEE); format: in vivo, Female Swiss Webster mice
Method: Arachidonic Acid-Induced Ear Edema (AAEE)
The purpose of this assay was to determine the ability of a topically-applied compound to prevent mouse ear edema induced by topical application of arachidonic acid. Female Swiss Webster mice topically received vehicle or test compound (1.0 mg/ear) on both ears (10 μl on outer and inner ears). After 30 minutes, the right ear of all groups received arachidonic acid (4 mg/ear) and the left ear received vehicle alone. After an additional 1 hour, the mice were sacrificed and an ear punch (4 mm) was taken from each ear. The difference in right and left ear punch weights for each animal was determined to assess activity. […] See Young, J. M. et al., J. Invest. Dermatol., 80, (1983), pp 48-52.

[4] = tested on: naja naja (snake venom) phospholipase A2 -induced paw edema; test: Phospholipase A2-induced Paw Edema (PIPE); format: in vivo, male Wistar rats
Method: Phospholipase A2 -induced Paw Edema (PIPE)
The ability of compounds to prevent naja naja (snake venom) phospholipase A2 -induced paw edema in male Wistar rats (100-125 g) was measured. PLA2 (3 units/paw) alone or with 0.1M of the test compound was injected in the subplantar region of the rat left hindpaw. Immediately subsequent to the injection and at two hours post administration the paw was immersed in a mercury bath, and paw displacement was measured on a recorder via a transducer. […] See Giessler, A. J. et al., Agents and Actions, Vol. 10, Trends in Inflammation Research (1981), p. 195.

Row | SMILES | inhibition at 10000 µM [1] [%] | TPAEE [2] [%] | further results
1 | Nc1ccncc1Oc1ccccc1CO [2-(4-Amino-3-pyridinyloxy)benzenemethanol oxalate] | 82 | – | –
2 | COC(=O)c1ccccc1Oc1cnccc1N [2-(4-Amino-3-pyridinyloxy)benzoic acid methyl ester hydrochloride] | 38 | – | –
3 | COc1ccc(Oc2c[n+]([O-])ccc2[N+](=O)[O-])cc1 [3-(4-Methoxyphenoxy)-4-nitropyridine-1-oxide] | – | -43 | –
4 | Cl.Nc1ccncc1Oc1ccccc1 [3-phenoxy-4-pyridinamine hydrochloride, 3-Phenoxy-4-pyridinamine hydrochloride] | 95 | -60 | AAEE ([3]; 1 mg/ear topical, arachidonic acid 4 mg/ear, 1 hour): -31%; PIPE (difference in edema vs. control) ([4]; 0.1 M test compound injected with PLA2 (3 units/paw), subplantar, rat hindpaw, two hours post administration): -79%
5 | CCOC(=O)Cc1ccc(Oc2cnccc2N)cc1.O=C(O)C(=O)O [4-(4-Amino-3-pyridinyloxy)benzeneacetic acid ethyl ester oxalate] | – | -39 | –
6 | Nc1cnccc1Oc1ccccc1 [4-phenoxy-3-pyridinamine, 4-Phenoxy-3-pyridinamine] | – | -34 | –
7 | CC(=O)Nc1ccncc1Oc1ccccc1 [N-(3-Phenoxy-4-pyridinyl)acetamide hydrochloride] | 73 | – | –
8 | C[C@]12CCC(=O)C=C1CC[C@@H]1[C@@H]2[C@@H](O)C[C@@]2(C)[C@H]1CC[C@]2(O)C(=O)CO [hydrocortisone, reference compound] | – | – | ED50 (TPAEE standard) ([2]; standard, topical): 47 μg/ear; ED50 (PIPE standard) ([4]; standard, rat paw edema): 0.46 M
9 | COc1ccc2c(c1)c(CC(=O)O)c(C)n2C(=O)c1ccc(Cl)cc1 [indomethacin, reference compound] | – | – | ED50 (AAEE standard) ([3]; standard, topical): 1.5 mg/ear
